From the supplement of paper PMC11061612

Legend:
MK-2206 = compound: NC1(c2ccc(-c3nc4ccn5c(=O)[nH]nc5c4cc3-c3ccccc3)cc2)CCC1 [MK-2206]; conditions: max 10 µM
Method in brief: (§1)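 Cancer cell lines were seeded into 1536-well plates in 7.5 μl medium (DMEM/F12 or RPMI, 10% FBS), held 24 hours at 37°C and 5% CO2, and dosed for 72 hours with final DMSO typically 0.2%. Luminescence from CellTiter-Glo 2.0, scaled between blank-well and DMSO-well means, served as viability. The single-agent IC50 was obtained from dose-response fits with a non-linear mixed effects model, each fit being a two-parameter logistic curve.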

AZD2811 = compound: CCN(CCO)CCCOc1ccc2c(Nc3cc(CC(=O)Nc4cccc(F)c4)[nH]n3)ncnc2c1 [AZD2811]; conditions: max 1 µM
Method in brief: as §1

AZD5991 = compound: Cc1c2c(nn1C)CSCc1cc(n(C)n1)CSc1cc(c3ccccc3c1)OCCCc1c(C(=O)O)n(C)c3c-2c(Cl)ccc13 [AZD5991]; conditions: max 1 µM
Method in brief: as §1

Gefitinib = compound: COc1cc2ncnc(Nc3ccc(F)c(Cl)c3)c2cc1OCCCN1CCOCC1 [Gefitinib]; conditions: max 10 µM
Method in brief: as §1

AZD5153 = compound: COc1nnc2ccc(N3CCC(c4ccc(OCCN5CCN(C)C(=O)[C@H]5C)cc4)CC3)nn12 [AZD5153]; conditions: max 1 µM
Method in brief: as §1

SN-38 = compound: CCc1c2c(nc3ccc(O)cc13)-c1cc3c(c(=O)n1C2)COC(=O)[C@]3(O)CC [SN-38]; conditions: max 0.3 µM
Method in brief: as §1

Lapatinib = compound: CS(=O)(=O)CCNCc1ccc(-c2ccc3ncnc(Nc4ccc(OCc5cccc(F)c5)c(Cl)c4)c3c2)o1 [Lapatinib]; conditions: max 10 µM
Method in brief: as §1

AZD7648 = compound: Cc1cc2ncnn2cc1Nc1ncc2c(n1)n(C1CCOCC1)c(=O)n2C [AZD7648]; conditions: max 10 µM
Method in brief: as §1

5-Fluorouracil = compound: O=c1[nH]cc(F)c(=O)[nH]1 [5-Fluorouracil]; conditions: max 20 µM
Method in brief: as §1

SRA737 = compound: N#Cc1cnc(Nc2cc(NC[C@H]3CNCCO3)c(C(F)(F)F)cn2)cn1 [SRA737]; conditions: max 10 µM
Method in brief: as §1

[1] = compound: O=C(Nc1ccc2[nH]nc(-c3ccncc3)c2c1)[C@@H]1CCN(CC(=O)N2CCN(c3ccc(-c4ncccn4)cc3)CC2)C1; conditions: max 5 µM
Method in brief: as §1

Gemcitabine = compound: Nc1ccn([C@@H]2O[C@H](CO)[C@@H](O)C2(F)F)c(=O)n1 [Gemcitabine]; conditions: max 0.3 µM
Method in brief: as §1

Venetoclax = compound: CC1(C)CCC(CN2CCN(c3ccc(C(=O)NS(=O)(=O)c4ccc(NCC5CCOCC5)c([N+](=O)[O-])c4)c(Oc4cnc5[nH]ccc5c4)c3)CC2)=C(c2ccc(Cl)cc2)C1 [Venetoclax]; conditions: max 1 µM
Method in brief: as §1

Dasatinib = compound: CC1=C(C(=CC=C1)Cl)NC(=O)C2=CN=C(S2)NC3=CC(=NC(=N3)C)N4CCN(CC4)CCO [Dasatinib]; conditions: max 2 µM
Method in brief: as §1

Crizotinib = compound: C[C@@H](Oc1cc(-c2cnn(C3CCNCC3)c2)cnc1N)c1c(Cl)ccc(F)c1Cl [Crizotinib]; conditions: max 10 µM
Method in brief: as §1

Paclitaxel = compound: CC(=O)O[C@H]1C(=O)[C@@]2(C)[C@H]([C@H](OC(=O)c3ccccc3)[C@]3(O)C[C@H](OC(=O)[C@H](O)[C@@H](NC(=O)c4ccccc4)c4ccccc4)C(C)=C1C3(C)C)[C@]1(OC(C)=O)CO[C@@H]1C[C@@H]2O [Paclitaxel]; conditions: max 3 µM
Method in brief: as §1

AZD6738 = compound: C[C@@H]1COCCN1C2=NC(=NC(=C2)C3(CC3)[S@](=N)(=O)C)C4=C5C=CNC5=NC=C4 [AZD6738]; conditions: max 10 µM
Method in brief: as §1

Taselisib = compound: Cc1nc(-c2cn3c(n2)-c2ccc(-c4cnn(C(C)(C)C(N)=O)c4)cc2OCC3)n(C(C)C)n1 [Taselisib]; conditions: max 10 µM
Method in brief: as §1

Etoposide = compound: COc1cc([C@@H]2c3cc4c(cc3[C@@H](O[C@@H]3O[C@@H]5CO[C@@H](C)O[C@H]5[C@H](O)[C@H]3O)[C@H]3COC(=O)[C@H]23)OCO4)cc(OC)c1O [Etoposide]; conditions: max 10 µM
Method in brief: as §1

AZD4320 = compound: CN(CC[C@H](CSC1=CC=CC=C1)NC2=C(C=C(C=C2)S(=O)(=O)NC(=O)C3=CC=C(C=C3)N4CCC(CC4)[C@H](C5=CC=CC=C5C6=CC=C(C=C6)Cl)O)S(=O)(=O)C(F)(F)F)CCO [AZD4320]; conditions: max 1 µM
Method in brief: as §1

AZD0156 = compound: CN(C)CCCOc1ccc(-c2ccc3ncc4c(c3c2)n(C2CCOCC2)c(=O)n4C)cn1 [AZD0156]; conditions: max 3 µM
Method in brief: as §1

Savolitinib = compound: C[C@@H](c1ccc2nccn2c1)n1nnc2ncc(-c3cnn(C)c3)nc21 [Savolitinib]; conditions: max 1 µM
Method in brief: as §1

Selumetinib = compound: Cn1cnc2c(F)c(Nc3ccc(Br)cc3Cl)c(C(=O)NOCCO)cc21 [Selumetinib]; conditions: max 10 µM
Method in brief: as §1

AZD5363 = compound: C1CN(CCC1(C(=O)N[C@@H](CCO)C2=CC=C(C=C2)Cl)N)C3=NC=NC4=C3C=CN4 [AZD5363]; conditions: max 10 µM
Method in brief: as §1

AZD1390 = compound: CC(C)n1c(=O)n(C)c2cnc3cc(F)c(-c4ccc(OCCCN5CCCCC5)nc4)cc3c21 [AZD1390]; conditions: max 0.3 µM
Method in brief: as §1

Trametinib = compound: CC(=O)Nc1cccc(-n2c(=O)n(C3CC3)c(=O)c3c(Nc4ccc(I)cc4F)n(C)c(=O)c(C)c32)c1 [Trametinib]; conditions: max 1 µM
Method in brief: as §1

Palbociclib = compound: CC(=O)c1c(C)c2cnc(Nc3ccc(N4CCNCC4)cn3)nc2n(C2CCCC2)c1=O [Palbociclib]; conditions: max 10 µM
Method in brief: as §1

AZD8186 = compound: C[C@@H](Nc1cc(F)cc(F)c1)c1cc(C(=O)N(C)C)cc2c(=O)cc(N3CCOCC3)oc12 [AZD8186]
Method in brief: as §1

Carboplatin = compound: C1CC(C1)(C(=O)[O-])C(=O)[O-].N.N.[Pt+2] [Carboplatin]; conditions: max 10 µM
Method in brief: as §1

AZD1775 = compound: C=CCn1c(=O)c2cnc(Nc3ccc(N4CCN(C)CC4)cc3)nc2n1-c1cccc(C(C)(C)O)n1 [AZD1775]; conditions: max 3 µM
Method in brief: as §1

Olaparib = compound: O=C(c1cc(Cc2n[nH]c(=O)c3ccccc23)ccc1F)N1CCN(C(=O)C2CC2)CC1 [Olaparib]; conditions: max 10 µM
Method in brief: as §1

Prexasertib = compound: COc1cccc(OCCCN)c1-c1cc(Nc2cnc(C#N)cn2)n[nH]1 [Prexasertib]; conditions: max 1 µM
Method in brief: as §1

Doxorubicin = compound: COc1cccc2c1C(=O)c1c(O)c3c(c(O)c1C2=O)C[C@@](O)(C(=O)CO)C[C@@H]3O[C@H]1C[C@H](N)[C@H](O)[C@H](C)O1 [Doxorubicin]; conditions: max 1 µM
Method in brief: as §1

Capivasertib = compound: C1CN(CCC1(C(=O)N[C@@H](CCO)C2=CC=C(C=C2)Cl)N)C3=NC=NC4=C3C=CN4 [Capivasertib]; conditions: max 10 µM
Method in brief: as §1

Alisertib = compound: COc1cc(Nc2ncc3c(n2)-c2ccc(Cl)cc2C(c2c(F)cccc2OC)=NC3)ccc1C(=O)O [Alisertib]; conditions: max 10 µM
Method in brief: as §1

SG3199 = compound: CC1=CN2[C@@H](C1)C=NC3=CC(=C(C=C3C2=O)OC)OCCCCCOC4=C(C=C5C(=C4)N=C[C@@H]6CC(=CN6C5=O)C)OC [SG3199]; conditions: max 0.001 µM
Method in brief: as §1

## OCI-AML3 (Acute Myeloid Leukemia)
MK-2206
  IC50, cell viability 72 h: > 10 µM
AZD2811
  IC50, cell viability 72 h: 0.324 µM
AZD5991
  IC50, cell viability 72 h: 0.25 µM
Gefitinib
  IC50, cell viability 72 h: > 10 µM
AZD5153
  IC50, cell viability 72 h: 0.0256 µM
SN-38
  IC50, cell viability 72 h: 0.0101 µM
Lapatinib
  IC50, cell viability 72 h: > 10 µM
AZD7648
  IC50, cell viability 72 h: > 10 µM
5-Fluorouracil
  IC50, cell viability 72 h: 3.07 µM
SRA737
  IC50, cell viability 72 h: 5.32 µM
[1]
  IC50, cell viability 72 h: 0.156 µM
Gemcitabine
  IC50, cell viability 72 h: 0.00504 µM
Venetoclax
  IC50, cell viability 72 h: > 1 µM
Dasatinib
  IC50, cell viability 72 h: > 2 µM
Crizotinib
  IC50, cell viability 72 h: 6.53 µM
Paclitaxel
  IC50, cell viability 72 h: 0.00457 µM
AZD6738
  IC50, cell viability 72 h: 1.81 µM
Taselisib
  IC50, cell viability 72 h: 1.44 µM
Etoposide
  IC50, cell viability 72 h: 1.27 µM
AZD4320
  IC50, cell viability 72 h: > 1 µM
AZD0156
  IC50, cell viability 72 h: > 3 µM
Savolitinib
  IC50, cell viability 72 h: > 1 µM
Selumetinib
  IC50, cell viability 72 h: 0.0919 µM
AZD5363
  IC50, cell viability 72 h: > 10 µM
AZD1390
  IC50, cell viability 72 h: > 0.3 µM
Trametinib
  IC50, cell viability 72 h: 0.00298 µM
Palbociclib
  IC50, cell viability 72 h: 5.34 µM
AZD8186; max 10 µM
  IC50, cell viability 72 h: > 10 µM
Carboplatin
  IC50, cell viability 72 h: > 10 µM
AZD1775
  IC50, cell viability 72 h: 0.615 µM
Olaparib
  IC50, cell viability 72 h: > 10 µM

## SU-DHL-5 (B-Cell Non-Hodgkin's Lymphoma)
AZD2811
  IC50, cell viability 72 h: 0.00984 µM
AZD5991
  IC50, cell viability 72 h: 0.00862 µM
Gefitinib
  IC50, cell viability 72 h: > 10 µM
AZD5153
  IC50, cell viability 72 h: 0.0423 µM
SN-38
  IC50, cell viability 72 h: 0.00138 µM
Lapatinib
  IC50, cell viability 72 h: 6.61 µM
Prexasertib
  IC50, cell viability 72 h: 0.00489 µM
Doxorubicin
  IC50, cell viability 72 h: 0.013 µM
AZD7648
  IC50, cell viability 72 h: 6.58 µM
Venetoclax
  IC50, cell viability 72 h: > 1 µM
Dasatinib
  IC50, cell viability 72 h: 0.0108 µM
Crizotinib
  IC50, cell viability 72 h: 1.65 µM
Capivasertib
  IC50, cell viability 72 h: 0.305 µM
AZD6738
  IC50, cell viability 72 h: 0.457 µM
Taselisib
  IC50, cell viability 72 h: 0.0486 µM
AZD4320
  IC50, cell viability 72 h: > 1 µM
AZD0156
  IC50, cell viability 72 h: > 3 µM
Savolitinib
  IC50, cell viability 72 h: > 1 µM
Selumetinib
  IC50, cell viability 72 h: > 10 µM
Alisertib
  IC50, cell viability 72 h: 0.359 µM
SG3199
  IC50, cell viability 72 h: > 0.001 µM
AZD1390
  IC50, cell viability 72 h: > 0.3 µM
Trametinib
  IC50, cell viability 72 h: 1 µM
Palbociclib
  IC50, cell viability 72 h: 0.559 µM
AZD8186; max 3 µM
  IC50, cell viability 72 h: 0.16 µM
AZD1775
  IC50, cell viability 72 h: 0.363 µM
Olaparib
  IC50, cell viability 72 h: 3.38 µM

## SUP-B15 (B-Lymphoblastic Leukemia)
AZD2811
  IC50, cell viability 72 h: 0.034 µM
AZD5991
  IC50, cell viability 72 h: 0.0389 µM
Gefitinib
  IC50, cell viability 72 h: > 10 µM
AZD5153
  IC50, cell viability 72 h: 0.098 µM
SN-38
  IC50, cell viability 72 h: 0.0027 µM
Lapatinib
  IC50, cell viability 72 h: > 10 µM
Prexasertib
  IC50, cell viability 72 h: 0.0217 µM
Doxorubicin
  IC50, cell viability 72 h: 0.369 µM
AZD7648
  IC50, cell viability 72 h: > 10 µM
Venetoclax
  IC50, cell viability 72 h: 0.00348 µM
Dasatinib
  IC50, cell viability 72 h: 0.0105 µM
Crizotinib
  IC50, cell viability 72 h: 1.38 µM
Capivasertib
  IC50, cell viability 72 h: 8.51 µM
AZD6738
  IC50, cell viability 72 h: 2.11 µM
Taselisib
  IC50, cell viability 72 h: > 10 µM
AZD4320
  IC50, cell viability 72 h: 0.00213 µM
AZD0156
  IC50, cell viability 72 h: > 3 µM
Savolitinib
  IC50, cell viability 72 h: > 1 µM
Selumetinib
  IC50, cell viability 72 h: > 10 µM
Alisertib
  IC50, cell viability 72 h: 0.0384 µM
SG3199
  IC50, cell viability 72 h: > 0.001 µM
AZD1390
  IC50, cell viability 72 h: > 0.3 µM
Trametinib
  IC50, cell viability 72 h: 0.627 µM
Palbociclib
  IC50, cell viability 72 h: > 10 µM
AZD8186; max 3 µM
  IC50, cell viability 72 h: > 3 µM
AZD1775
  IC50, cell viability 72 h: 0.692 µM
Olaparib
  IC50, cell viability 72 h: 2.02 µM
